Assay results taken from patent US20040192673A1, “N-aroyl cyclic amine derivatives as orexin receptor antagonists” (priority 2001, published 2004).

Tests used:
[1] = system: freely-feeding rats; conditions: central administration, 4 hour time period; cited from earlier work
[2] = system: rat; assay: Rat sleep/EEG studies; type: in vivo; conditions: central administration at the onset of the normal sleep period
Excerpt: Therefore antagonists of its receptor may be useful in the treatment of sleep disorders including insomnia.

In the case of “orexin-A: ligand for the orexin-1 receptor, an agonist of the orexin receptors; 33-residue peptide, sequence in b167 (QPLPDCCRQKTCSCRLYELLHGAGNHAAGILTL; not fully specified; Orexin-A; UniProt O43612 34-66, looked up)”, the “increase in food intake over control rats receiving vehicle” value [1] is listed as “approximately four-fold” and the “arousal (sleep/EEG)” value [2] is listed as “dose-related increase in arousal”.
